Patent US20090176792A1, “SUBSTITUTED DIBENZHYDRYLPIPERAZINES” (AUSPEX PHARMACEUTICALS, INC., priority 2008, published 2009)

Experiments:
[1] = target: cytochrome P450 CYP2D6 (Homo sapiens, UniProt P10635); conditions: cited from earlier work
[2] = In vitro liver microsomal stability assay; conditions: human liver microsomes 1 mg per mL, 1 μM, 37° C., vs non-isotopically enriched drug
Experimental: Test compounds were prepared as solutions in 20% acetonitrile-water and added to the assay mixture (final assay concentration 1 μM) and incubated at 37° C. Final concentration of acetonitrile in the assay should be <1%. Aliquots (50 μL) were taken out at times 0, 15, 30, 45, and 60 min, and diluted with ice cold acetonitrile (200 μL) to stop the reactions. Samples were centrifuged at 12,000 RPM for 10 min to precipitate proteins. Supernatants were transferred to micro centrifuge tubes and stored for LC/MS/MS analysis of the degradation half-life of the test compounds.

Sequence of cytochrome P450 CYP2D6 (P10635 whole entry): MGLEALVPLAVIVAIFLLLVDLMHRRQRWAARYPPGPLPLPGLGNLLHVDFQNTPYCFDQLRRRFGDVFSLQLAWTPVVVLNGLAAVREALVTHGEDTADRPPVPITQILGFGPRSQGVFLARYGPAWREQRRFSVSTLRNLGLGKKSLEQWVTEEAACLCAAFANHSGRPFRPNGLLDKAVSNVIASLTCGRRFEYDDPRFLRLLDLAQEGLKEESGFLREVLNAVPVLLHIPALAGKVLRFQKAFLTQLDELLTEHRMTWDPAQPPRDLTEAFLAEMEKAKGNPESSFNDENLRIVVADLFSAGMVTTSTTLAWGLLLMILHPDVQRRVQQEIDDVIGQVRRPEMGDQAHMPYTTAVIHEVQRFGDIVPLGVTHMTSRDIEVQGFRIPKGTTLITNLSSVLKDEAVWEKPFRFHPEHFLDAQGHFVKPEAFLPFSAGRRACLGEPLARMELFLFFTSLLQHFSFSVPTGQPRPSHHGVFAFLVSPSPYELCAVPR

Row | SMILES | inhibition of cytochrome P450 CYP2D6 [1] | % Increase of HLM degradation half-life ([2]; column 0%-5%) | % Increase of HLM degradation half-life ([2]; column 5-15%)
1 | CN1CCN(C(c2ccccc2)c2ccccc2)CC1 [Example 1, 1-benzhydryl-4-methylpiperazine] | inhibit | + (0%-5%) | –
2 | [2H]C([2H])([2H])N1CCN(C(c2ccccc2)c2ccccc2)CC1 [Example 2, d3-1-Benzhydryl-4-methylpiperazine] | – | – | + (5-15%)
